Test results published in patent US20230157283A1, “COMPOSITIONS AND METHODS FOR INHIBITING A FUNGAL PATHOGEN” (Tu Biomics, Inc., priority 2020, published 2023).

Assays:
Botrytis cinerea = assay: Example 1: in vitro growth on agar plates containing organic acids; format: cell-based; parameters: Botrytis Treated (in vitro growth, mean±SE): unit not given here; settings: for Botrytis Treated (in vitro growth, mean±SE): n=4 plates
Procedure: (§1) In FIG. 1, n.s. indicates “not significant”, ppm indicates “parts per million”; L and (S) indicate levorotatory and sinister rotatory, respectively, and asterisks are used to indicate degrees of statistical significance according to standard conventions. 2-fold concentrated compositions of lactate and acetate were diluted 1:1 with a deionized water + agar solution to prepare agar plates
(§2) In a first round of experiments, the effect of acetate, and dextrorotary (d), levorotary (1), and racemic mixtures of enantiomers of lactate alone, or in combination with acetate was evaluated on the growth of Sclerotium cepivorum and Botrytis cinera (Tables 1A and 1B).
(§3) The effects of higher concentrations of acetate and lactate L (S) on growth was evaluated (Tables 2A and 2B).

Sclerotium cepivorum = assay: as above; format: cell-based; parameters: Sclerotium Treated (in vitro growth, mean±SE): unit not given here; settings: for Sclerotium Treated (in vitro growth, mean±SE): n=4 plates
Procedure: as §1, §2, §3

[1] = 175 ppm, 7 days after inoculation
[2] = 175 ppm, 7 days, n.s./bracketed = not significant
[3] = 350 ppm, 7 days after inoculation
[4] = 350 ppm, 7 days, n.s./bracketed = not significant
[5] = 175 ppm, 7 days, negative = inhibition, n.s./bracketed = not significant
[6] = 350 ppm, 7 days, negative = inhibition, n.s./bracketed = not significant
[7] = first round, concentrations of Tables 1A and 1B
[8] = 200 ppm, 7 days after inoculation
[9] = 400 ppm, 7 days after inoculation
[10] = 600 ppm, 7 days, second round, n.s./bracketed = not significant
[11] = 600 ppm, 7 days, second round (higher concentrations)
[12] = higher concentrations, Tables 2A and 2B

| SMILES | Botrytis Treated (in vitro growth, mean±SE) (Botrytis cinerea; [1]) | % Efficacy (percentage of mean growth in control plates) (Botrytis cinerea; [2]) | Botrytis Treated (in vitro growth, mean±SE) (Botrytis cinerea; [3]) | % Efficacy (percentage of mean growth in control plates) (Botrytis cinerea; [4]) | Sclerotium Treated (in vitro growth, mean±SE) (Sclerotium cepivorum; [1]) | % Efficacy (percentage of mean growth in control plates) (Sclerotium cepivorum; [5]) | Sclerotium Treated (in vitro growth, mean±SE) (Sclerotium cepivorum; [3]) | % Efficacy (percentage of mean growth in control plates) (Sclerotium cepivorum; [6]) | effect on growth of S. cepivorum (in words) (Sclerotium cepivorum; [7]) | Sclerotium Treated (in vitro growth, mean±SE) (Sclerotium cepivorum; [11]) | % Efficacy (percentage of mean growth in control plates) (Sclerotium cepivorum; [10]) | effect on growth of S. cepivorum (in words) (Sclerotium cepivorum; [12]) | further results |
| --- | --- | --- | --- | --- | --- | --- | --- | --- | --- | --- | --- | --- | --- |
| CC(O)C(=O)O (racemic) [Lactate DL (RS racemic mix), reference compound] | 16.81 ± 1.23 | n.s. | 26.15 ± 3.37 | n.s. | 2.06 ± 1.18 | -72% | 6.71 ± 2.90 | n.s. | inhibited growth | – | – | – | – |
| CC(=O)O [Acetate, acetic acid] | – | – | – | – | – | – | – | – | significantly inhibited growth | 2.41 ± 0.57 | -86% | increased with acetate concentration at all concentrations evaluated | Botrytis Treated (in vitro growth, mean±SE) (Botrytis cinerea; [8]): 16.19 ± 1.09; % Efficacy (percentage of mean growth in control plates) (Botrytis cinerea; 200 ppm, 7 days, negative = inhibition): -33%; Botrytis Treated (in vitro growth, mean±SE) (Botrytis cinerea; [9]): 12.37 ± 0.79; % Efficacy (percentage of mean growth in control plates) (Botrytis cinerea; 400 ppm, 7 days, negative = inhibition): -49%; % Efficacy (percentage of mean growth in control plates) (Botrytis cinerea; [10]): n.s.[11] %; Botrytis Treated (in vitro growth, mean±SE) (Botrytis cinerea; 600 ppm, 7 days, second round): 22.25 ± 4.12; % Efficacy (percentage of mean growth in control plates) (Botrytis cinerea; 800 ppm, 7 days, second round, n.s./bracketed = not significant): n.s.[13] %; Botrytis Treated (in vitro growth, mean±SE) (Botrytis cinerea; 800 ppm, 7 days, second round): 22.73 ± 4.69; Botrytis Treated (in vitro growth, mean±SE) (Botrytis cinerea; 1000 ppm, 7 days, second round): 29.75 ± 3.76; % Efficacy (percentage of mean growth in control plates) (Botrytis cinerea; 1000 ppm, 7 days, second round, positive = more growth): 48%; effect on growth of B. cinerea (in words) (Botrytis cinerea; [7]): significantly inhibited growth; effect on growth of B. cinerea (in words) (Botrytis cinerea; summary of FIG. 1): inhibited growth of B. cinera at lower concentrations, but served as a carbon source at higher concentrations; Sclerotium Treated (in vitro growth, mean±SE) (Sclerotium cepivorum; [8]): 3.63 ± 2.30; % Efficacy (percentage of mean growth in control plates) (Sclerotium cepivorum; 200 ppm, 7 days, negative = inhibition, n.s./bracketed = not significant): n.s. [23] %; Sclerotium Treated (in vitro growth, mean±SE) (Sclerotium cepivorum; [9]): 2.62 ± 1.85; % Efficacy (percentage of mean growth in control plates) (Sclerotium cepivorum; 400 ppm, 7 days, negative = inhibition, n.s./bracketed = not significant): n.s. [-39] %; % Efficacy (percentage of mean growth in control plates) (Sclerotium cepivorum; 800 ppm, 7 days, second round): -97%; Sclerotium Treated (in vitro growth, mean±SE) (Sclerotium cepivorum; 800 ppm, 7 days, second round): 0.51 ± 0.20 |
| C[C@@H](O)C(=O)O [Lactate D (R), D-lactic acid, reference compound] | 23.42 ± 1.23 | 49% | 23.82 ± 2.65 | [35] % | 14.09 ± 5.75 | n.s. | 10.68 ± 3.19 | n.s. | appeared to act as a carbon source | – | – | – | – |
| C[C@H](O)C(=O)O [Lactate L (S), L-lactic acid] | 23.59 ± 2.66 | [38] % | 27.71 ± 4.97 | [71] % | 5.73 ± 1.72 | [-43] % | 5.17 ± 1.85 | [-46] % | inhibited growth | 20.50 ± 4.10 | n.s.[18] % | not effective | % Efficacy (percentage of mean growth in control plates) (Sclerotium cepivorum; 450 ppm, 7 days, second round, n.s./bracketed = not significant): n.s.[-7] %; Sclerotium Treated (in vitro growth, mean±SE) (Sclerotium cepivorum; 450 ppm, 7 days, second round): 16.08 ± 3.55; effect on growth of S. cepivorum (in words) (Sclerotium cepivorum; summary of FIG. 1): inhibited growth of S. cepivorum at lower concentrations, but served as a carbon source at higher concentrations |
